For 3 compounds, inhibition, IC50 and Kd results are on record in paper PMC7226869 (ACS Omega, 2020).

Where two headings read alike, the source gives them in different places.

The target of one test is KPC-2 (Klebsiella pneumoniae, UniProt Q93LQ9). Kind of test: carbapenemase inhibition at a single concentration. It is filed as biochemical. As to conditions: read-out: % inhibition at 50 μM.
For test [1], the target named is T1, New Delhi metallo-β-lactamase-1 (NDM-1) (Klebsiella pneumoniae, UniProt E9NWK5). The test can be described thus: imipenem hydrolysis by purified NDM-1. It counts as biochemical.
A further test deals with OXA-48 (Klebsiella pneumoniae, UniProt Q6XEC0). The test can be described thus: carbapenemase inhibition at a single concentration. It is filed as biochemical. To be noted: read-out: % inhibition at 50 μM.
OXA-48, sequence (Q6XEC0 23-265 limits assumed): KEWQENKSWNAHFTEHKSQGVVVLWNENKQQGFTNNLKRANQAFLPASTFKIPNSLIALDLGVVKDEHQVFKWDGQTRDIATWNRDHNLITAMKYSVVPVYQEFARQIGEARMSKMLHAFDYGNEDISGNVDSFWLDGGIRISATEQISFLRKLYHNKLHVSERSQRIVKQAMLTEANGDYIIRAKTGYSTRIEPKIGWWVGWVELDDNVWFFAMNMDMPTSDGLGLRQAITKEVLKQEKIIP
Test [2] concerns the target T1, New Delhi metallo-β-lactamase-1 (NDM-1). Kind of test: imipenem hydrolysis by purified NDM-1. It is filed as biochemical. This is another data set of the same source.
The target is the same in test [3]. Kind of test: 1H-15N HSQC NMR titration. It counts as binding.

Broadly, the inhibition is how much of the control response was suppressed. What is called IC50 is the midpoint of a concentration-inhibition curve. In the case of `O=c1c(O)c(-c2cc(O)c(O)c(O)c2)oc2cc(O)cc(O)c12` [myricetin], the inhibition at 50 µM at KPC-2 stood at 78%; on OXA-48, 90%. This compound showed an IC50 in test [1] of 3.3 µM.
In turn, `O=c1c(O)c(-c2ccc(O)c(O)c2)oc2cc(O)cc(O)c12` [quercetin] returned an IC50 in test [2] of 5 to 10 µM.
A word on the Kd: it is the constant that tells how readily two partners part at equilibrium. Lower therefore signals tighter binding. For the compound `O=c1c(O)c(-c2ccc(O)cc2O)oc2cc(O)cc(O)c12` [morin], in test [3], the Kd is around 300 µM.
